Assay results from the supplement of paper PMC10307832.

Key:
Assay in all cases: relative viability (nuclei count vs DMSO), 5 days (fraction); higher = more cells survive
[1] = compound: C[C@@H](N)c1ccc(C(=O)Nc2ccnc3[nH]ccc23)cc1 + Cc1nc(NC(=O)N2CCC[C@H]2C(N)=O)sc1-c1ccnc(C(C)(C)C(F)(F)F)c1 [Alpelisib] (partner 2 µM)
In short: (§1)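 Relative viability was taken as the ratio of nuclei in treated wells to nuclei in vehicle wells. Lung cancer cell lines in 1536-well plates received compounds by pin tool one day after seeding, either one drug alone or a fixed anchor-drug dose plus five library-drug doses (not always all listed) in √10 steps. Nuclei were counted on 4× images after 5 days of treatment, and values are medians of duplicate plates.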

[2] = compound: C1CNCCC1C2=CC(=NN2)C3=CC=NC=C3 + CC(=O)c1c(C)c2cnc(Nc3ccc(N4CCNCC4)cn3)nc2n(C2CCCC2)c1=O [Palbociclib] (partner 0.5 µM)
In short: as §1

[3] = compound: C[C@@H](N)c1ccc(C(=O)Nc2ccnc3[nH]ccc23)cc1 + CC(=O)Nc1cccc(-n2c(=O)n(C3CC3)c(=O)c3c(Nc4ccc(I)cc4F)n(C)c(=O)c(C)c32)c1 [Trametinib] (partner 0.02 µM)
In short: as §1

Tanzisertib + Luminespib = compound: O[C@H]1CC[C@H](Nc2ncc3nc(Nc4c(F)cc(F)cc4F)n([C@H]4CCOC4)c3n2)CC1 [Tanzisertib] + CCNC(=O)c1noc(-c2cc(C(C)C)c(O)cc2O)c1-c1ccc(CN2CCOCC2)cc1 [Luminespib] (partner 0.01 µM)
In short: as §1

| Cell Line | relative viability ([1]; first compound 0.04 µM) | relative viability ([1]; first compound 0.1265 µM) | relative viability ([1]; first compound 0.4 µM) | relative viability ([1]; first compound 1.265 µM) | relative viability ([1]; first compound 4 µM) | relative viability ([2]; first compound 0.08 µM) | relative viability ([2]; first compound 0.8 µM) | relative viability ([2]; first compound 2.53 µM) | relative viability ([2]; first compound 8 µM) | relative viability ([3]; first compound 0.04 µM) | relative viability ([3]; first compound 0.1265 µM) | relative viability ([3]; first compound 0.4 µM) | relative viability ([3]; first compound 1.265 µM) | relative viability ([3]; first compound 4 µM) | relative viability (Tanzisertib + Luminespib; first compound 0.08 µM) | relative viability (Tanzisertib + Luminespib; first compound 0.253 µM) | relative viability (Tanzisertib + Luminespib; first compound 0.8 µM) | relative viability (Tanzisertib + Luminespib; first compound 2.53 µM) | relative viability (Tanzisertib + Luminespib; first compound 8 µM) |
| --- | --- | --- | --- | --- | --- | --- | --- | --- | --- | --- | --- | --- | --- | --- | --- | --- | --- | --- | --- |
| NCI-H460 | 0.531 | 0.549 | 0.697 | 0.555 | 0.41 | 0.105 | 0.179 | 0.315 | 0.303 | 0.217 | 0.165 | 0.243 | 0.0564 | 0.178 | 0.0366 | 0.0372 | 0.0359 | 0.0394 | 0.0394 |
| NCI-H2085 | 1 | 0.923 | 0.925 | 0.936 | 0.966 | 0.519 |  | 0.481 | 0.485 | 0.653 | 0.702 | 0.652 | 0.726 | 0.583 | 0.525 | 0.406 | 0.443 | 0.459 | 0.457 |
| PC-14 | 0.925 | 0.932 | 1.02 | 1.02 | 0.811 | 0.531 | 0.585 | 0.613 | 0.468 | 0.736 | 0.656 | 0.497 |  | 0.431 | 0.181 | 0.109 | 0.22 | 0.217 | 0.17 |
| HOP-62 | 0.761 | 0.825 | 0.793 | 0.705 | 0.805 | 0.34 | 0.489 | 0.463 | 0.468 | 0.425 | 0.356 | 0.35 | 0.377 | 0.365 | 0.966 | 0.924 | 0.886 | 0.91 | 0.883 |
| NCI-H2087 | 0.897 | 0.855 | 0.803 | 0.844 | 0.495 | 0.18 | 0.22 | 0.196 | 0.276 | 0.284 | 0.214 | 0.202 | 0.229 | 0.251 | 0.182 | 0.2 | 0.166 | 0.21 | 0.168 |
| NCI-H1793 | 0.853 | 0.672 | 0.704 |  | 0.833 | 0.296 |  | 0.329 | 0.364 | 0.46 | 0.442 | 0.452 |  | 0.61 | 0.174 | 0.216 | 0.2 | 0.165 | 0.216 |
| PC-3 [JPC-3] | 1.1 | 1.09 | 1.03 | 1.12 | 0.866 | 0.547 | 0.495 | 0.558 | 0.541 | 0.656 | 0.695 | 0.732 | 0.651 | 0.549 | 0.621 | 0.758 | 0.693 | 0.662 | 0.6 |
| H3255 | 0.774 | 0.742 | 0.806 | 0.716 | 0.673 | 0.309 | 0.338 | 0.327 | 0.346 | 0.704 | 0.694 | 0.748 | 0.757 | 0.583 | 0.818 | 0.929 | 1.02 | 0.846 | 0.773 |
| EMC-BAC-2 | 0.772 | 0.723 | 0.696 | 0.74 | 0.54 | 0.435 | 0.513 | 0.531 | 0.523 | 0.958 | 1.04 | 1.03 | 1.01 | 0.969 | 1.24 | 1.07 | 1.23 | 1.16 | 1.14 |
| CAL-12T | 1.37 | 1.36 | 1.43 | 1.54 | 0.903 | 0.535 | 0.0415 | 0.566 | 0.572 | 0.34 | 0.408 | 0.38 | 0.447 | 0.409 | 0.383 | 0.409 | 0.376 | 0.731 | 0.247 |
| NCI-H650 | 1.19 | 1.15 | 1.06 |  | 0.841 | 0.334 | 0.352 | 0.4 | 0.406 |  | 0.959 | 0.968 |  | 1.03 | 0.725 | 0.915 | 0.884 | 0.936 | 0.855 |
| SK-MES-1 | 1 | 0.986 | 1.01 | 0.786 | 0.834 | 0.308 | 0.316 | 0.37 | 0.353 | 0.607 | 0.523 | 0.458 | 0.488 | 0.401 | 0.718 | 0.692 | 0.698 | 0.75 | 0.499 |
| NCI-H1355 | 0.885 | 0.833 | 0.919 |  | 0.746 | 0.387 | 0.324 | 0.421 | 0.38 | 0.482 | 0.427 | 0.446 | 0.433 | 0.393 | 0.77 | 0.697 | 0.805 | 0.725 | 0.628 |
| NCI-H838 | 0.909 | 0.884 | 0.773 | 0.571 | 0.344 | 0.225 | 0.194 | 0.249 | 0.247 | 0.261 | 0.512 | 0.45 | 0.289 | 0.192 | 0.293 | 0.34 | 0.277 | 0.248 | 0.209 |
| LK-2 | 1.3 | 1.02 | 1.17 |  | 0.83 |  | 0.658 | 0.801 | 0.735 | 1.03 | 0.733 | 0.694 | 0.939 | 0.933 | 0.224 | 0.187 | 0.191 | 0.192 | 0.181 |
| NCI-H322M | 0.909 | 0.838 | 0.935 |  | 0.969 | 0.489 | 0.425 | 0.468 | 0.508 | 0.625 | 0.61 | 0.701 | 0.617 | 0.684 | 0.834 | 0.751 | 0.87 | 0.932 | 0.951 |
| NCI-H661 | 0.77 | 1.05 | 0.914 | 0.157 | 0.634 | 0.416 | 0.394 | 0.394 | 0.417 | 0.48 | 0.595 | 0.571 | 0.475 | 0.494 | 0.903 | 0.943 | 0.902 | 0.952 | 0.955 |
| NCI-H2228 | 0.822 | 0.824 | 0.934 | 0.766 | 1.01 | 0.822 | 0.991 | 0.787 | 0.863 | 0.556 | 0.428 | 0.886 | 0.395 | 0.475 | 0.2 | 0.188 | 0.173 | 0.162 | 0.132 |
| NCI-H1395 | 1.07 | 0.976 | 0.996 |  | 0.838 | 0.652 | 0.587 | 0.644 | 0.613 | 1.04 | 0.996 | 1.03 |  | 0.912 | 0.786 | 0.525 | 0.632 | 0.717 | 0.547 |
| NCI-H520 | 0.971 | 0.969 | 1.21 | 1.12 | 1.07 | 0.176 | 0.167 | 0.219 | 0.147 | 0.915 | 0.73 | 0.697 | 0.891 | 0.719 | 0.255 | 0.253 | 0.218 | 0.227 | 0.202 |
| NCI-H441 | 0.715 | 0.602 | 0.641 | 0.669 | 0.919 | 0.227 | 0.222 | 0.251 | 0.22 | 0.522 | 0.61 | 0.478 | 0.38 | 0.405 | 0.312 | 0.338 | 0.29 | 0.279 | 0.314 |
